ChEMBL document CHEMBL1201862, “PubChem BioAssay data set” (2004)
Activity calls are given as the source filed them.

Assays:
[1] = molecular target: T1, Coagulation factor XII (Homo sapiens, UniProt P00748); format: functional;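 note: activated factor XIIa alpha cleaving a fluorogenic AMC peptide substrate; inhibitor potency from loss of enzyme activity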
T1 sequence (P00748 whole entry): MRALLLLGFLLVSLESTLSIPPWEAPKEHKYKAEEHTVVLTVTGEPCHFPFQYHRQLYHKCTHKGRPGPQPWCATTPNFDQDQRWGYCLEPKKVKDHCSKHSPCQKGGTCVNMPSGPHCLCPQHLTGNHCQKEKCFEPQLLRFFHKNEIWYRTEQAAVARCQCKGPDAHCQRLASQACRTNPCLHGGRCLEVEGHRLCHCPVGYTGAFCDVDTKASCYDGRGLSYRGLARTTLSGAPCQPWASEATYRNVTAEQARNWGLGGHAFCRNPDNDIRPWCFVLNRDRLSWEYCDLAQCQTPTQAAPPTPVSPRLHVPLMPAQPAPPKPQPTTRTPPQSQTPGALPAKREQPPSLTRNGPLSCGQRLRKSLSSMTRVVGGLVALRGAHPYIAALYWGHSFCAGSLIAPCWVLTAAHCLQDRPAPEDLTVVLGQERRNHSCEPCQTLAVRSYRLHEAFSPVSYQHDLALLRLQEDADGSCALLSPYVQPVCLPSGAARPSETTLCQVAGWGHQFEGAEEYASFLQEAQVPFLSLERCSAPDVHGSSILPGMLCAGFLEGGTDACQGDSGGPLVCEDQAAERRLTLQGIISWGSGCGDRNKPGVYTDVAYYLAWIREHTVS

[2] = test system: INS1; test: beta cell apoptosis inhibitors, cytokine rescue, dose response, luminescence, retest (AID 449756); format: functional, cell-based; conditions: Rattus norvegicus;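 note: cell death triggered by IL-1 beta plus TNF-alpha plus IFN-gamma mixture; protective hits raise ATP signal compared with cytokine alone wells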
[3] = Shn3 3'UTR reporter inhibitors, dose response, cell-based, Clone20 osteoblasts, firefly luciferase, cherry-picked (AID 624132); format: functional;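 note: firefly luciferase luminescence from reporter carrying the Shn3 3'UTR in osteoblasts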
[4] = HepG2 cell cytotoxicity, dose response, cytotoxicity control for Shn3 inhibitor project, CellTiter-Glo, cherry-picked (AID 624134); format: functional, cell-based
[5] = control 3'UTR Renilla luciferase suppression, dose response, counter-screen for Shn3 inhibitor project, cell-based, Clone20-Shn3RL, cherry-picked (AID 624133); format: functional
[6] = molecular target: T2, DNA repair protein RAD52 homolog (Homo sapiens, UniProt P43351); format: functional, biochemical
T2 sequence (P43351 whole entry): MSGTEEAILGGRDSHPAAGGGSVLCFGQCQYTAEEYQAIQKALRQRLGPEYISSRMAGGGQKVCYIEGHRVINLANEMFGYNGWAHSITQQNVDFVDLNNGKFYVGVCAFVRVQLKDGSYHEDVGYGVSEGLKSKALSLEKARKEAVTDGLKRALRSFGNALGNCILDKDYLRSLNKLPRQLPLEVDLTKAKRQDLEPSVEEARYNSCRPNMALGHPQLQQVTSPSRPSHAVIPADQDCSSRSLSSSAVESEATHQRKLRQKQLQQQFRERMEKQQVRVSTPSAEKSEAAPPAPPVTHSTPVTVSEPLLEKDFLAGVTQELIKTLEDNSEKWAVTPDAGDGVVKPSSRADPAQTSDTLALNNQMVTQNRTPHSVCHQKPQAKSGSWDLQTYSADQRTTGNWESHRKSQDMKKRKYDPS

[7] = molecular target: T3, High affinity choline transporter 1 (Homo sapiens, UniProt Q9GZV3); test: CHT inhibitors, dose response, cell-based, 5-point CRC, membrane potential dye (AID 504840); format: functional
T3 sequence (Q9GZV3 whole entry): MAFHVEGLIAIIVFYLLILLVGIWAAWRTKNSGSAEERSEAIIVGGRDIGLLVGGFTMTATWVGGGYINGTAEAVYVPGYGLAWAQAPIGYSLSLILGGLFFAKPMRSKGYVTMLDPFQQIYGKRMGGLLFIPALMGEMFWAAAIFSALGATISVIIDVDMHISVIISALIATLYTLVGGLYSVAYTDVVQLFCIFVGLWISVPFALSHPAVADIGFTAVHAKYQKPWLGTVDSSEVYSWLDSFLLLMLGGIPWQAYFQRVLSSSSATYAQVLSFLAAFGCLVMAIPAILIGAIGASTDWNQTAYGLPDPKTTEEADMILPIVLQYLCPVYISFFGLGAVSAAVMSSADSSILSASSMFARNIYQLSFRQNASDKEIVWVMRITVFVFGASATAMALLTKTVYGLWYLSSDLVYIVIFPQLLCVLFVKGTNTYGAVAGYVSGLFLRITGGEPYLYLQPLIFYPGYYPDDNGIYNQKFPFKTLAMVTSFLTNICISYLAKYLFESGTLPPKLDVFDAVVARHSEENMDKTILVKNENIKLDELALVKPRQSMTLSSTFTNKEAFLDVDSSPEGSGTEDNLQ

[8] = inhibitors of intracellular T. cruzi replication, confirmation, NIH3T3 host cells, beta-gal luminescence (AID 2044); format: functional, cell-based;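 note: intracellular parasites grown in NIH/3T3 mouse fibroblasts as host cells; luminescent beta-galactosidase reporter signal from transgenic T. cruzi replicating inside host cells; inhibitors lower the luminescence signal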
[9] = cytotoxicity toward NIH3T3 fibroblasts, dose response, counter-screen, cell-based, ATP luminescence, mouse fibroblasts (AID 2010); format: functional;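 note: cells exposed to compound for about 90 hours before reading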
[10] = molecular target: T4, Corticotropin-releasing factor receptor 2/Corticotropin-releasing factor-binding protein (Homo sapiens, UniProt P24387+Q13324); test: Dose Response confirmation of uHTS hits for small molecule antagonists of the CRF-binding protein and CRF-R2 receptor complex.; format: functional; conditions: read-out: IC50_Mean
T4 sequence (Q13324 whole entry): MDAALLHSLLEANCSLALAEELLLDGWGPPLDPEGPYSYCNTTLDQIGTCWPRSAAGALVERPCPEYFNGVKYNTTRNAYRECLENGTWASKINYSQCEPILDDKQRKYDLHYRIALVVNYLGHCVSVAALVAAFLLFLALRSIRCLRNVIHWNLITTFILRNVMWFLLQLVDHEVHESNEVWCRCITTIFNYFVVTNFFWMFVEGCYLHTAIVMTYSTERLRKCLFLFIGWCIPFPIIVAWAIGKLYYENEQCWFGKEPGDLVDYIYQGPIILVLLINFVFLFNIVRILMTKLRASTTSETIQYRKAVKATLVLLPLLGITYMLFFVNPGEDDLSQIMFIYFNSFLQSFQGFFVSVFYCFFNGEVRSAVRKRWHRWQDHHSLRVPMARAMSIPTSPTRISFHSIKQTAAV
T4 sequence (P24387 whole entry): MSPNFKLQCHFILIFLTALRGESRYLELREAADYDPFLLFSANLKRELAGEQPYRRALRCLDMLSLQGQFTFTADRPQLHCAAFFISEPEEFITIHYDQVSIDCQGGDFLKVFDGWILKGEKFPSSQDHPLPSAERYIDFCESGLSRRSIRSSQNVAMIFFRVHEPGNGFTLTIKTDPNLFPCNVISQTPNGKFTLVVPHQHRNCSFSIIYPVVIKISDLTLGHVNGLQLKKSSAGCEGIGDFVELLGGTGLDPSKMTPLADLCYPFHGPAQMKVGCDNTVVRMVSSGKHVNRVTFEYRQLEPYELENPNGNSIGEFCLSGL

[11] = molecular target: T4, Corticotropin-releasing factor receptor 2/Corticotropin-releasing factor-binding protein; test: activators of CRF receptor 2 with binding protein – uHTS hits, confirmation (AID 602473); format: functional; conditions: read-out: EC50_Mean
[12] = CRF-BP/CRF-R2 complex antagonists, dose response, cell-based, uHTS hits, 384-well (AID 651639); format: functional, Homo sapiens; conditions: read-out: IC50_Mean
[13] = molecular target: Prothrombin (Homo sapiens, UniProt P00734); test: Thrombin 1536 HTS Dose Response Confirmation. [Related pubchem assays: 1046 (Thrombin 1536 HTS; hits were confirmed in this assay)]; format: functional
[14] = molecular target: Cytochrome P450 2D6 (Homo sapiens, UniProt P10635);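 note: CYP2D6 member of a cytochrome P450 panel assay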
[15] = molecular target: T5, RNA-binding protein pos-1 (Caenorhabditis elegans, UniProt G5EF15); test: inhibitors of POS-1/mex-3 RNA binding, dose response, biochemical, fluorescence polarization (AID 1964);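 note: purified POS-1 fused to maltose binding protein made in E. coli; potency of compounds blocking POS-1 binding to fluorescent RNA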
T5 sequence (G5EF15 whole entry): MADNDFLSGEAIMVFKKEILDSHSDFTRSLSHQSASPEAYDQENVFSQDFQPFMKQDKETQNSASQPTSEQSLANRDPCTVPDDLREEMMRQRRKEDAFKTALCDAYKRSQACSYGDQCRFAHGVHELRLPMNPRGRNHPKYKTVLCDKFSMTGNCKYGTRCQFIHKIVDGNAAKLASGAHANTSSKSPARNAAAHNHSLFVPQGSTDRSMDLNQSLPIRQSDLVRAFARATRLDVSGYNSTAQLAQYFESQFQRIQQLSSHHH

[16] = molecular target: T6, Zinc finger protein mex-5 (Caenorhabditis elegans, UniProt Q9XUB2); test: MEX-5/TCR-2 RNA interaction inhibitors, dose response, biochemical, C. elegans, fluorescence polarization (AID 1960)
T6 sequence (Q9XUB2 whole entry): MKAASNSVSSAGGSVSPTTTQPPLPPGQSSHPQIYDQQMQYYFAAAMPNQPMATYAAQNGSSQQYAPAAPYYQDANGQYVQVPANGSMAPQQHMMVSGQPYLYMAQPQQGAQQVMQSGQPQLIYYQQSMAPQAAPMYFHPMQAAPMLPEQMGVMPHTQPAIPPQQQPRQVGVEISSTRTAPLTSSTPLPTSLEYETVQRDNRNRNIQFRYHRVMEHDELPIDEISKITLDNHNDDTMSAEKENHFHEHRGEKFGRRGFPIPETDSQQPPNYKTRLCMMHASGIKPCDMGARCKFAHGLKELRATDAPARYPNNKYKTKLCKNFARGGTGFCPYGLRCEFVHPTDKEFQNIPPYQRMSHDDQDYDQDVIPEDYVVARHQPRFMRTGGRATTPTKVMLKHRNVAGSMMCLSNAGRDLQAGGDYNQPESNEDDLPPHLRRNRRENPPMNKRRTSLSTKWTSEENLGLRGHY

[17] = inhibitors of HIV Env-driven cell fusion, dose response, cherry-pick (AID 652057); format: functional, cell-based
[18] = ZM109 Env clade C HIV-1 fusion inhibitors, dose response, HeLa effector, CEM target cells, luciferase, cherry-pick (AID 652058); format: functional, cell-based
[19] = off-target signal loss in HeLa-CEM21 co-culture – HeLa F-luc CTL cells, cherry-picked, counter-screen for HIV-1 Env fusion inhibitor project, dose response (AID 652040); format: functional, cell-based;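 note: potency for signal decrease marking cytotoxic or nonspecific inhibition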
[20] = inhibitors of clade B AD8 Env fusion, dose response, cell-based, cherry-pick (AID 652062); format: functional;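 note: luciferase signal from cell-cell fusion driven by HIV-1 clade B AD8 Env; potency is for inhibitors of fusion seen as a drop in luminescence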

Chain of Cytochrome P450 2D6 (P10635 whole entry, the tested form may be a part): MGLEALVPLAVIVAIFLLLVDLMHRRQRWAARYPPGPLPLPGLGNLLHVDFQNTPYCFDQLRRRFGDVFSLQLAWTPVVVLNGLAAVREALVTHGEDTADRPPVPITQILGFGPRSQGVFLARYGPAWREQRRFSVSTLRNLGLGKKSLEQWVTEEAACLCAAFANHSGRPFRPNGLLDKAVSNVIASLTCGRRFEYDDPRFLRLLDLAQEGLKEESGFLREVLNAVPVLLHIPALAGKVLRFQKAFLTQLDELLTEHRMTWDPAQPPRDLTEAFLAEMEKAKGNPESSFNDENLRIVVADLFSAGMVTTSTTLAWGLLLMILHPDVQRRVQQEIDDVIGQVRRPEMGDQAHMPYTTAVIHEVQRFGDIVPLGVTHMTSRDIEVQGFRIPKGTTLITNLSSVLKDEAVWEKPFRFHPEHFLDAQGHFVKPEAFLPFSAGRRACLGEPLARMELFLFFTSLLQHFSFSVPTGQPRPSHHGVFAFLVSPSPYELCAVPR

Compound: O=C(Nc1ccc(F)cc1)Nc1cc(OCC(F)(F)F)cc(OCC(F)(F)F)c1
- IC50 [1]: > 50 µM (inactive)
- AC50 [2]: 2.01 µM (active)
- AC50 [3]: 2.46 µM (active)
- AC50 [4]: 4.1 µM (active)
- AC50 [5]: 4.59 µM (active)

Compound: Cc1ccc2nc(NC(=N)N)nc(C)c2c1
- AC50 [6]: 12.6 µM (active)

Compound: C=CCNC(=O)CN(c1ccc(F)cc1)S(=O)(=O)c1ccc(OC)cc1
- IC50 [1]: > 50 µM (inactive)

Compound: CSc1ccc(S(=O)(=O)N2CCC(C(=O)N3CCc4ccccc4C3)CC2)cc1
- IC50 [7]: 17.4 µM (active)

Compound: O=C(Nc1nc2ccc(S(=O)(=O)N3CCCC3)cc2s1)c1ccccn1
- EC50 [8]: 2.15 µM (active)
- EC50 [9]: 5.13 µM (active)
- IC50 [10]: 28.6 µM (active)
- EC50 [11]: > 53 µM (inactive)
- IC50 [12]: > 20 µM (inactive)

Compound: COc1ccc2c(c1)OC(O)(C(F)(F)C(F)F)CC2=O (stereo not given)
- IC50 [7]: 13.2 µM (active)
- EC50 [11]: 15.6 µM (active)

Compound: COCCNc1nc2c(S(=O)(=O)c3cc(C)ccc3C)nnn2c2ccccc12
- IC50 [10]: 39 µM (active)
- EC50 [11]: > 53 µM (inactive)
- IC50 [12]: 10.6 µM (active)

Compound: COc1ccc(/C=C/C(=O)NCc2cn(C)nc2C)cc1COc1ccc(Cl)cc1Br
- IC50 [10]: 6.89 µM (active)
- EC50 [11]: > 53 µM (inactive)
- IC50 [12]: > 20 µM (inactive)

Compound: Nn1c(Cc2cccc3ccccc23)nnc1SCCOc1ccc(F)cc1
- IC50 [1]: > 50 µM (inactive)

Compound: CCOC(=O)c1ccccc1Oc1c(F)c(F)nc(NCCO)c1F
- IC50 [13]: > 50 µM (not active)
- IC50 [7]: 14.5 µM (active)
- AC50 [14]: 20 µM (inconclusive)

Compound: Cc1cc(NC(=O)COC(=O)c2cccc(S(=O)(=O)N(C)C3CCCCC3)c2)no1
- IC50 [1]: > 50 µM (inactive)

Compound: COc1cc2ccccc2cc1C(=O)NC(=S)Nc1cc(C(=O)O)ccc1C
- EC50 [15]: > 300 µM (not active)
- EC50 [16]: > 300 µM (not active)
- IC50 [1]: > 50 µM (inactive)

Compound: CN(CC(=O)NCCc1ccc(S(N)(=O)=O)cc1)CC(=O)Nc1ccc(Cl)c(C(F)(F)F)c1
- AC50 [17]: 5.63 µM (active)
- AC50 [18]: 2.95 µM (active)
- AC50 [19]: 7.96 µM (active)
- AC50 [20]: 11.9 µM (active)

Compound: COc1ccc(OC(=O)N(C)C[C@@H]2OCc3ccccc3-c3c(n(C)c4ccccc34)C(=O)N([C@H](C)CO)C[C@@H]2C)cc1
- AC50 [17]: 1.62 µM (active)
- AC50 [18]: 1.44 µM (active)
- AC50 [19]: 2.43 µM (active)
- AC50 [20]: 3.25 µM (active)

Compound: N=C(N)Nc1ccc(/C=C2\C=Cc3ccccc32)cc1
- AC50 [6]: 13.2 µM (active)

Compound: CC1=C(c2ccccc2)C(O)(c2ccccc2)C(C)C1=O (stereo not given)
- IC50 [10]: 13.9 µM (active)
- EC50 [11]: > 53 µM (inactive)
- IC50 [12]: 8.13 µM (active)

Compound: COc1ccc(S(=O)(=O)Nc2ccc3c(c2)CC(=O)N([C@@H](C)CO)C[C@H](C)[C@H](CN(C)S(=O)(=O)c2ccccc2)O3)cc1
- AC50 [17]: 2.12 µM (active)
- AC50 [18]: 1.82 µM (active)
- AC50 [20]: 11.6 µM (active)

Compound: Cc1n[nH]c(C)c1CCC(=O)N/N=C/c1cccs1
- IC50 [1]: > 50 µM (inactive)
